{"source": "patent US20210169984A1", "about": "“SENSITIZING CANCER TO DEATH RECEPTOR AGONISTS WITH KINASE INHIBITORS” (The Johns Hopkins University, priority 2016, published 2021)", "key": {"[1]": {"details": "mouse, in vivo; cited from earlier work"}, "[2]": {"test_system": "TRAIL-resistant cancer cells (HT29, MDA-MB-231, LNCAP, DU145, PC3, A549)", "assay": "Cell death after TRAIL / TRAILPEG alone in various cancer cells (FIG. 2A)", "format": "cell-based, human", "details": "TRAIL 1 μg/mL for 24 hours", "protocol": "Quantified cell death data after TRAIL (1 μg/mL) treatment for 24 hours in various cancer cell types are shown. Human tumor cell lines include: colon (HT-29, SW620, HCT116), prostate (PC3), breast (MDA-MD-231, MCF-7), lung (A549). HCT116 represents a TRAIL-sensitive colorectal tumor for comparison. HEK293T is a normal human kidney cell line.\n(§1) A library of KIs was screened for TRAIL sensitization in various TRAIL-resistant cancer cells, including: HT29 (CRC), MDA-MB-231 (breast), LNCAP (prostate), DU145 (prostate), PC3 (prostate) and A549 (lung). […] The 355 KIs comprised of compounds targeting diverse kinases, including multi kinases, RTK (receptor kinase tyrosine), PI3K (phosphinistide 3-kinase), aurora kinases, including […] (mitogen-activated protein kinase). […] The interaction between KIs and TRAIL had been previously explored in vitro with the tyrosine KI sorafenib, a drug similar to regorafenib. However, such studies were mostly performed on cellular levels and not in in vivo models, combined with systemically administered recombinant TRAIL. Although a similar structure, regorafenib was newly approved in 2012. The interactions between the three other selected KIs and TRAIL have not been previously reported, in vitro or in vivo."}, "[3]": {"details": "in vivo; cited from earlier work"}, "cancer patients": {"test_system": "cancer patients", "details": "cited from earlier work"}, "[4]": {"test_system": "prostate cancer cells (LNCAP, DU145, PC-3)", "assay": "Western blot of prostate cancer cells, regorafenib alone or with TRAILPEG (FIG. 6A-6C)", "format": "cell-based, human", "protocol": "(§2) FIG. 5 depicts a bar graph showing results of tumor volumes in mice bearing TRAIL-resistant HT29 tumors treated with three rounds of TRAILPEG (150 μg, i.v), oral regorafenib (10 mg/kg) or oral regorafenib with TRAILPEG within days (12-17) after tumor inoculation. Mice were sacrificed on day 27. […] FIG. 6A depicts a Western blot analysis of LNCAP prostate cancer cells with regorafenib alone or in combination with TRAILPEG.\nFIG. 6B depicts a Western blot analysis of DU145 prostate cancer cells with regorafenib alone or in combination with TRAILPEG.\nFIG. 6C depicts a Western blot analysis of PC-3 prostate cancer cells with regorafenib alone or in combination with TRAILPEG.\n(§3) Regorafenib potentiated TRAIL-induced apoptosis in prostate cancer cells (LNCAP, HPLNCAP (High Passages LNCAP), DU-145 and PC-3) when combined with TRAILPEG (1 μg/mL) (FIG. 5). After treating cells with regorafenib (5 μM), caspases and anti-apoptotic proteins were analyzed by western blotting (FIG. 6A-FIG. 6C). […] Data confirmed that FDA-approved KIs or KIs under clinical development synergized with long-acting TRAILPEG by overcoming TRAIL-resistance through unique TRAIL sensitization mechanisms."}, "[5]": {"test_system": "HP LNCAP prostate adenocarcinoma cells", "assay": "KI library screen for TRAIL sensitization", "format": "cell-based, human", "description": "as §1, §3"}, "[6]": {"test_system": "prostate cancer cells (LNCAP, HPLNCAP, DU-145 and PC-3)", "assay": "Quantified cell death after regorafenib and TRAILPEG in prostate cancer cells", "format": "cell-based, human", "details": "regorafenib 5 μM combined with TRAILPEG 1 μg/mL", "protocol": "FIG. 7 is a bar graph showing that regorafenib enhanced TRAILPEG-induced apoptosis in prostate cancer cells. Quantified cell death after combinatorial treatment with regorafenib (5 μM) and TRAILPEG (1 μg/mL) in various prostate cancer cells is shown. *P<0.05, **P<0.01, ***P<0.001 versus control (regorafenib only).\nas §3"}, "HT29 cells [7]": {"test_system": "HT29 cells", "assay": "Western blot of caspases and anti-apoptotic proteins, regorafenib alone or with TRAILPEG (FIG. 3B)", "format": "cell-based, human", "protocol": "FIG. 3B depicts a Western blot analysis of HT29 cells with regorafenib alone or in combination with TRAILPEG.\n(§4) Regorafenib potentiated TRAIL-induced apoptosis in HT-29 cells when combined with TRAILPEG (1 μg/mL) (FIG. 3A). After treating cells with regorafenib (2 μM), caspases and anti-apoptotic proteins were analyzed by western blotting (FIG. 3B). […] Data confirmed that FDA-approved KIs or KIs under clinical development synergized with long-acting TRAILPEG by overcoming TRAIL-resistance through unique TRAIL sensitization mechanisms."}, "HT29 xenografts": {"test_system": "HT29 xenografts", "assay": "TRAIL-resistant HT29 tumor xenograft", "format": "in vivo", "details": "oral regorafenib 10 mg/kg days 12, 14, 16; TRAILPEG 150 μg i.v. days 13, 15, 17; sacrifice day 27", "protocol": "as §2\nThe therapeutic combination of oral regorafenib and TRAILPEG in HT29 xenografts in comparison to regorafenib and TRAILPEG alone (FIG. 7) were investigated. HT29 xenografts were treated with oral regorafenib (10 mg/kg) or saline on the 12th, 14th, and 16th days of tumor inoculation. On the 13th, 15th, and 17th days, animals were given an i.v. dose of TRAILPEG (150 μg). Animals were sacrificed on day 27."}, "HT29 (CRC) cells": {"test_system": "HT29 (CRC) cells", "assay": "KI library screen for TRAIL sensitization (KI pretreatment, then TRAILPEG; MTT cell death assay)", "format": "cell-based, human", "experimental": "The screening is performed using an MTT cell death assay in CRC cells with different TRAIL sensitivities."}, "HT-29 cells": {"test_system": "HT-29 cells", "assay": "Quantified cell death after combinatorial treatment with regorafenib and TRAILPEG (FIG. 3A)", "format": "cell-based, human", "details": "regorafenib combined with TRAILPEG 1 μg/mL", "protocol": "FIG. 3A depicts a bar graph showing that regorafenib (an oral, multi-kinase inhibitor) enhanced TRAILPEG -induced apoptosis in colorectal cancer (CRC) cells. Quantified cell death after combinatorial treatment with regorafenib and TRAILPEG (1 μg/mL) in HT-29 cells is shown.\nas §4"}, "[8]": {"test_system": "PC3 prostate adenocarcinoma cells", "assay": "KI library screen for TRAIL sensitization", "format": "cell-based, human", "protocol": "FIG. 2B depicts a bar graph showing quantified cell death after analyzing synergized cell death induced by TRAILPEG (1 μg/mL for 3 hr) and kinase inhibitors (KIs) in HT29 (human colon tumor cell line) and PC3 (human prostate tumor cell line) cells individually pretreated with selected 355 KIs. Relative cell death rates were calculated by [KI+TRAILPEG]/[KI alone] after separate MTT assays. The arrows indicate KIs with >60% cell death; n=3.\nas §1"}, "HT29 cells [9]": {"test_system": "HT29 cells", "assay": "qPCR of death receptors and decoy receptors (FIG. 4A)", "format": "cell-based, human", "details": "regorafenib 2 μM", "protocol": "FIG. 4A depicts a bar graph showing qPCR analysis of death receptors (DRs) and decoy receptors (DcRs) in HT29 cells treated with regorafenib for 24 hours or 48 hours as indicated; *P<0.05, **P<0.01, ***P<0.001 versus control.\n(§5) HT29 cells were treated with regorafenib (2 μM) for 24 hour or 48 hour as indicated. mRNAs for TRAIL receptors were measured by quantitative RT-PCR (qPCR) (FIG. 4A). […] After treating HT29 cells with regorafenib as indicated, DR4/5 or anti-apoptotic proteins were analyzed by Western blot (FIG. 4B). […] Conversely, anti-apoptotic proteins MCL-1 and BCL-2 were absent in HT29 cells treated with regorafenib for 48 hours. It has been previously reported that TRAIL receptors could be induced by signaling including NF-κB, ER stress, and JNK-ROS."}, "HT29 cells [10]": {"test_system": "HT29 cells", "assay": "Western blot of DR4/5 and anti-apoptotic proteins (FIG. 4B)", "format": "cell-based, human", "details": "regorafenib, 48 hours", "protocol": "as §5"}, "[11]": {"details": "regorafenib 5 μM combined with TRAILPEG"}}, "note": "“Also recorded” adds a separate entry of the source."}
{"compound": "TRAIL: Tumor necrosis factor (TNF)-related apoptosis-inducing ligand, member of the TNF family", "values": [{"measurement": "circulating half-life", "setting": "[1]", "value": 66, "unit": "min"}, {"measurement": "TRAIL-induced apoptosis (cell death) by TRAIL", "setting": "[2]", "value": "resistance to TRAIL-induced apoptosis"}]}
{"compound": "dulanermin: recombinant TRAIL, native-type, short-acting", "values": [{"measurement": "half-life", "setting": "[3]", "value": 5, "unit": "min"}, {"measurement": "therapeutic benefit", "setting": "cancer patients; cancer patients, monotherapy studies", "value": "failed to demonstrate a robust therapeutic benefit"}, {"measurement": "anticancer activity", "setting": "cancer patients; combined with chemotherapy, lung and colon cancer patients", "value": "did not reveal improved anticancer activity"}, {"measurement": "tolerability", "setting": "cancer patients; human, in vivo", "value": "broad tolerability"}]}
{"compound": "CNC(=O)c1cc(Oc2ccc(NC(=O)Nc3ccc(Cl)c(C(F)(F)F)c3)c(F)c2)ccn1", "note": "[Regorafenib (BAY 73-4506), Regorafenib]", "values": [{"measurement": "anti-apoptotic protein MCL-1", "setting": "[4]; [11]", "value": "downregulated"}, {"measurement": "caspase-dependent TRAILPEG-induced apoptosis (PARP-1 cleavage, caspase activation)", "setting": "[4]; [11]", "value": "significantly sensitized"}, {"measurement": "apoptosis by single agent", "setting": "[4]; regorafenib or TRAILPEG alone", "value": "did not induce strong apoptosis"}, {"measurement": "KIs that sensitize cancer cells to TRAIL-based agents", "setting": "[5]", "value": "Example KIs that sensitize cancer cells to TRAIL-based agents."}, {"measurement": "TRAIL-induced apoptosis", "setting": "[6]; listed as Regorafenib", "value": "potentiated"}, {"measurement": "TRAIL-induced apoptosis", "setting": "[6]; listed as regorafenib", "value": "enhanced"}, {"measurement": "RIP-1", "setting": "HT29 cells [7]", "value": "dose-dependently downregulated"}, {"measurement": "anti-apoptotic proteins c-FLIP, MCL-1, BCL-2, and BCL-XL", "setting": "HT29 cells [7]; regorafenib 2 μM", "value": "downregulated"}, {"measurement": "caspase-dependent TRAILPEG-induced apoptosis (PARP-1 cleavage, caspase activation)", "setting": "HT29 cells [7]; regorafenib 2 μM", "value": "significantly sensitized"}, {"measurement": "tumor growth / tumor volume", "setting": "HT29 xenografts", "value": "moderate tumor reduction"}, {"measurement": "efficacy when combined with TRAILPEG (relative cell death, KI+TRAILPEG / KI alone)", "setting": "HT29 (CRC) cells; HT29 cells pretreated with KI for 24 hours before TRAILPEG", "value": "synergistic efficacy"}, {"measurement": "KIs that sensitize cancer cells to TRAIL-based agents", "setting": "HT29 (CRC) cells; HT-29 colorectal adenocarcinoma", "value": "Example KIs that sensitize cancer cells to TRAIL-based agents."}, {"measurement": "TRAIL-induced apoptosis", "setting": "HT-29 cells; listed as Regorafenib", "value": "potentiated"}, {"measurement": "TRAIL-induced apoptosis", "setting": "HT-29 cells; listed as regorafenib", "value": "enhanced"}, {"measurement": "KIs that sensitize cancer cells to TRAIL-based agents", "setting": "[8]", "value": "Example KIs that sensitize cancer cells to TRAIL-based agents."}, {"measurement": "DR4 mRNA", "setting": "HT29 cells [9]; 24 or 48 hour", "value": "significantly upregulate; also recorded: upregulated"}, {"measurement": "DRS mRNA", "setting": "HT29 cells [9]; 24 or 48 hour", "value": "minimally induced"}, {"measurement": "DcR2 expression", "setting": "HT29 cells [9]; 48 hour", "value": "down-regulating; also recorded: rarely detectable"}, {"measurement": "DR4 protein", "setting": "HT29 cells [10]; listed as Regorafenib", "value": "highly expressed"}, {"measurement": "DR4 protein", "setting": "HT29 cells [10]; listed as regorafenib", "value": "up-regulation"}, {"measurement": "anti-apoptotic proteins MCL-1 and BCL-2", "setting": "HT29 cells [10]; listed as regorafenib", "value": "absent; also recorded: down-regulated"}]}
